# How the values were obtained:
# MOG-specific Th17 cell = assay: Peripheral T cell responses (Th17) by flow cytometry in MOG-myelitis mice; type: in vivo; conditions: systemic administration; FIG. 12 panel A, each bar a single mouse
# Experimental: Mianserin treatment. Mice are induced with MOG-myelitis as described. Groups of mice initially receive intraperitoneally 1-10 mg/kg/day. The start day can vary between days 5-12 (before disease onset) and 14-20 (after disease onset). Peripheral T cell responses and CNS infiltration are analyzed by flow cytometry. Lumbar spinal cords are examined immunohistologically to characterize the degrees of axonal degeneration, secondary demyelination and CNS infiltration by peripheral immune cells during the various stages of MaG-myelitis. The mice are perfused with 4% paraformaldehyde and sections from lumbar spinal cord arestained with various antibodies and analyzed by confocal microscopy. In every step the degree of inflammation, axonal degeneration and demyelination is confirmed by using the following antibodies: CD11b (macrophages), CD3 (T cells), CD11c (dendritic cells), Glial fibrillary acidic protein (GFAP astroglia), Myelin Basic protein (MBP, for myelin), and SMI32 (hypophosphorylated NF—H, disrupted axons). To examine intracellular TLR and partner molecules antibodies against TLR3, 8 and 9, MyD88 and IRAK4, NALP1, ASC, active caspase-1, and IL-1 r3 are used.
# Peripheral T cell responses. […]
# Flow cytometry. […] Immunostained cells are analyzed using a Cyan FACS (Dako Cytomation).
# MOG-myelitis = assay: MOG peptide myelitis, neurological deficit scoring after systemic mianserin; type: in vivo, mice; conditions: systemic administration; FIG. 12 panels B and C, n=8
# Experimental: Induction of MOG peptide myelitis, and clinical evaluation. MOG peptide myelitis is elicited in 3 month old male mice by subcutaneous flank administration of 300 μg of rodent MOG peptide 35-55 emulsified in CFA. The mice receive 75 ng of pertussis toxin intraperitoneally on days 0 and 2, and are weighed and scored daily for neurological deficits by 2 blinded observers. Neurological scoring is on a 5 point scale: limp tail or waddling gait=1; limp tail and waddling gait=2; single limb paresis and ataxia 2.5; double limb paresis=3; single limb paralysis and paresis of a second limb=3.5; full paralysis of 2 limbs=4; and death (or sacrifice owing to inanition=5) (Bannerman et al, Brain 128:1877-1886 2005; Bannerman et al., Glia 55:57-64 2008; and Soulika et al, J Neurosci 29:14965-14979 2009).
# Mianserin treatment. Mice are induced with MOG-myelitis as described. Groups of mice initially receive intraperitoneally 1-10 mg/kg/day. The start day can vary between days 5-12 (before disease onset) and 14-20 (after disease onset). Peripheral T cell responses and CNS infiltration are analyzed by flow cytometry. […] The mice are perfused with 4% paraformaldehyde and sections from lumbar spinal cord arestained with various antibodies and analyzed by confocal microscopy. […]
structure (smiles),measurement,setting,value
CN1CCN2c3ccccc3Cc3ccccc3C2C1 (centres unmarked) [mianserin],MOG-specific Th17 cell generation in the periphery,MOG-specific Th17 cell,does not affect
same,neurological symptoms associated with MOG-myelitis,MOG-myelitis,diminishes

# — US20120207766A1, “INTRACELLULAR TOLL-LIKE RECEPTORS PATHWAYS AND AXONAL DEGENERATION” (priority 2009, published 2012)
